In brackets after ≈: the same amount, converted by molar mass. Like-named read-outs stand apart in the source and are kept apart here.
What was measured:
[1] = Pharmacokinetics on single dose in Beagle dogs (iv and po); format: in vivo, male Beagle dogs
Method: Pharmacokinetic properties of the drug in male Beagle dogs were evaluated by the same method with in vivo pharmacokinetic study with mice. The basic information is as follows: • Beagle: weighing 8-11 kg, purchased from Jiangsu Marshall Biotechnology Co., Ltd. • Dosage: 2 mg/kg (intravenous injection); 10 mg/kg (oral) • Solvent: 5% DMSO+5% Solutol+90% (20% HP-β-CD in Saline)

[2] = Metabolic stability in liver microsomes, rat; format: in vitro ADME
Method: (§1) Microsomes were taken out from the −80° C. refrigerator, rapidly melted in a 37° C. water bath and placed on ice until ready to use. The test article was diluted with DMSO to prepare a 10 mM stock solution, and then diluted with acetonitrile to a 0.5 mM secondary stock solution. […] NADPH was diluted with Buffer C to a working solution of 6 mM for the starter solution. An acetonitrile solution containing an internal standard was prepared as the precipitant, and Verapamil-HCl was chosen as the internal standard at a concentration of 4 ng/ml. […] A separate plate with pointed bottom wells, noted as a precipitation plate, was added with 135 μL precipitant per well; 0 h samples were transferred to the plate after 10 min incubation and 15 μL of starter solution was added; the plate was placed on ice before centrifugation. The diluted starter solution was added in sufficient quantity to the dispensing plate to facilitate the multichannel pipette aspiration operation. The reaction was carried out on a warm incubation shaker and 15 μL of starter solution/sample is added to the plate using a multichannel pipette. The reaction was mixed with a slight shake to initiate the reaction, which was accurately timed and recorded using a timer; After the reaction time had elapsed, all the solution in the plate was aspirated using the multichannel pipette and added to the precipitation plate to terminate the reaction at that point in time. After all reactions had been terminated, the plates were shaken for ten minutes on a plate shaker at 600 rpm to precipitate the protein. The plate was centrifuged at 4° C. for 15 minutes at maximum rpm. 80 μL of supernatant was taken, 320 μL of pure water was added and mixed for LC-MS analysis.

[3] = Saturated solubility in buffer at different pH; format: physicochemical; conditions: for solubility at 24 h: buffer solution, aqueous buffer, thermodynamic from solid
Method: The compound was placed in a buffer solution and shaken at constant temperature for 24 h. […] Chromatographic conditions: C18 column, mobile phase A: 0.02 M potassium dihydrogen phosphate:acetonitrile=90:10, mobile phase B: acetonitrile; V: 1.0 ml/min, T: 35° C., λ: 210 nm.

[4] = rat, in vivo; for Death Numbers / Death Rate: SD, 14 days
[5] = Toxicity in rats after 14 consecutive days of administration, survival; conditions: 14 days continuous administration, compared with controls
[6] = Metabolic stability in liver microsomes, human; format: in vitro ADME
Method: as §1, with “Test Example 3: Evaluation of the Metabolic Stability of Liver Microsomes (Mouse and Human) In Vitro Microsomes” for “Microsomes”

[7] = Metabolic stability in liver microsomes, mouse; format: in vitro ADME
Method: as §1, with “Test Example 3: Evaluation of the Metabolic Stability of Liver Microsomes (Mouse and Human) In Vitro Microsomes” for “Microsomes”

[8] = SD, rat, in vivo, 14 days
HK2 cells = assay: Cell Titer-Glo anti-proliferation, normal cells HK2; format: cell-based; conditions: Homo sapiens, HK-2
Summary of the method: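 Cells were exposed to serial compound concentrations (0.2% DMSO final) for 3 days at 37 °C, 5% CO2, then lysed with Cell Titer-Glo and read by luminescence. Inhibition was referenced to untreated-cell and medium-only controls, and IC50 came from a four-parameter variable-slope log(inhibitor)–response fit.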

[2H][C@]1(O)c2nc(-n3c4nc(Nc5ccc(N6CCC7(CCN(C)CC7)CC6)cc5)ncc4c(=O)n3CC=C)ccc2CCC12CC2 [Compound 37b]
AUClast ([1]; iv 2 mg/kg): 1602 ng·h/mL
Cl ([1]; iv 2 mg/kg): 21.8 mL/min/kg
T1/2 ([1]; iv 2 mg/kg): 5.05 h
Vss ([1]; iv 2 mg/kg): 5.71 L/kg
AUClast ([1]; po 10 mg/kg): 1816 ng·h/mL
Cmax ([1]; po 10 mg/kg): 171 ng/mL
F ([1]; po 10 mg/kg): 22.8%
T1/2 ([1]; po 10 mg/kg): 4.69 h
Tmax ([1]; po 10 mg/kg): 2.00 h
T1/2 liver microsomes Rat [2]: >2 h
Saturated solubility pH 5.0 ([3]; pH 5): 0.37 mg/mL
Saturated solubility pH 6.5 ([3]; pH 6.5): 0.37 mg/mL
Saturated solubility pH 7.4 ([3]; pH 7.4): 0.62 mg/mL
Maximum tolerated dose (in words) [4]: higher than that of the control compound AZD1775
Survival rate of rats (in words) [5]: significantly better than that in the control compound AZD1775 group and the control compound ZnC3 group
T1/2 liver microsomes Human [6]: >2 h
T1/2 liver microsomes Mouse [7]: 0.63 h

C=CCn1c(=O)c2cnc(Nc3ccc(N4CCN(C)CC4)cc3)nc2n1-c1cccc(C(C)(C)O)n1 [AZD1775, reference compound]
Vss ([1]; iv 2 mg/kg): 3.01 L/kg
AUC(0-t) ([1]; male, dog, plasma, iv 2 mg/kg): 877 ng·h/mL
clearance ([1]; male, dog, plasma, iv 2 mg/kg): 44 mL/min/kg
half-life ([1]; male, dog, plasma, iv 2 mg/kg): 1.03 h
AUC(0-t) ([1]; male, dog, plasma, po 10 mg/kg): 1620 ng·h/mL
half-life ([1]; male, dog, plasma, po 10 mg/kg): 2.34 h
Cmax ([1]; male, dog, plasma, po 10 mg/kg, read-out: Cmax): 405 ng/mL
Tmax ([1]; male, dog, plasma, po 10 mg/kg, read-out: Tmax): 1.67 h
F ([1]; po 10 mg/kg): 37.9%
half-life at 1 µM ([2]; read-out: T1/2 liver microsomes Rat): 0.635 h
solubility at 24 h ([3]; pH 5.0, 37° C., read-out: Saturated solubility pH 5.0): 410 µg/mL (≈ 819 µM)
solubility at 24 h ([3]; pH 6.5, 37° C., read-out: Saturated solubility pH 6.5): 50 µg/mL (≈ 99.9 µM)
solubility at 24 h ([3]; pH 7.4, 37° C., read-out: Saturated solubility pH 7.4): 20 µg/mL (≈ 40 µM)
Survival of Rats ([8]; female, 25 mg/kg): 7/7
Survival of Rats ([8]; female, 75 mg/kg): 0/7
Survival of Rats ([8]; male, 25 mg/kg): 7/7
Survival of Rats ([8]; male, 75 mg/kg): 1/7
Death Numbers ([4]; female, 100 mg/kg): 0
Death Rate ([4]; female, 100 mg/kg): 0%
Death Numbers ([4]; female, 200 mg/kg): 0
Death Rate ([4]; female, 200 mg/kg): 0%
Death Numbers ([4]; female, 300 mg/kg): 2
Death Rate ([4]; female, 300 mg/kg): 67%
Death Numbers ([4]; male, 100 mg/kg): 0
Death Rate ([4]; male, 100 mg/kg): 0%
Death Numbers ([4]; male, 200 mg/kg): 0
Death Rate ([4]; male, 200 mg/kg): 0%
Death Numbers ([4]; male, 300 mg/kg): 0
Death Rate ([4]; male, 300 mg/kg): 0%
IC50 (HK2 cells): 260 nM
half-life at 1 µM ([6]; read-out: T1/2 liver microsomes Human): 0.635 h
half-life at 1 µM ([7]; read-out: T1/2 liver microsomes Mouse): 0.433 h

Source: patent publication US20250304587A1, “WEE1 INHIBITOR, PREPARATION THEREFOR AND USE THEREOF” (JIANGSU TASLY DIYI PHARMACEUTICAL CO., LTD., priority 2022, published 2025)
